Source: patent US20110224170A1, “Pyranopyranone derivatives as antimicrobial agents” (BASF SE, priority 2010, published 2011)
≈ marks a conversion by molar mass, not a printed value.

What was measured:
[1] = test system: gram positive and gram negative bacteria; assay: Suspension test for bactericidal activity (modified EN 1040), residual cell count; assay type: cell-based
Procedure: The bactericidal activity of the compounds of the present invention is measured in a suspension test according to trivial modifications of the European Standard method EN 1040. Substances listed in Table 1 are tested against gram positive and gram negative bacteria, yeasts and moulds. A selection of the results is shown in the following. The pyrano pyranone derivatives are dissolved in ethanol or DMSO resulting in 1% stock solutions of the compounds. The cell densities of the bacterial suspensions used as inoculums for the suspension test are as follows (cfu=colony forming units): [table] For the suspension tests, an appropriate concentration of the test compound is mixed with a bacterial suspension resulting in a final cell count in the mixture of about 10^5 cfu/ml. These test mixtures are incubated at room temperature (22° C.+/−2° C.) and aliquots of 1 ml test mixture containing the test bacteria were taken after set contact times for determination of the residual cell count of test bacteria. For inactivation of the antimicrobial compounds, the 1 ml aliquots are diluted in 1:10 steps in a solution with 10% Tween, 3% lecithin, 0.1% histidine and 0.5% sodium thiosulfate.

[2] = test system: A. niger ATCC 6275; assay: Suspension test for fungicidal activity (modified EN 1275), residual cell count; assay type: cell-based, Aspergillus niger
Procedure: The fungicidal activity of the compounds of the present invention is measured in a suspension test according to trivial modifications of the European Standard method EN 1275. The pyrano pyranone derivatives are dissolved in ethanol or DMSO resulting in 1% stock solutions of the compounds. The cell density of Candida albicans ATCC 10231 used as inoculum for the suspension test was 2.4×10^8 cfu/ml and of A. niger ATCC 6275 3.8×10^8 cfu/ml. Aliquots of 1 ml were taken of the A. niger containing test mixtures after set contact times for determination of the residual cell count. For inactivation of the antimicrobial compounds, the 1 ml aliquots were diluted in 1:10 steps in a solution of the following composition: [table]

[3] = test system: Candida albicans ATCC 10231; assay: as above; assay type: cell-based; conditions: C. albicans
Procedure: The fungicidal activity of the compounds of the present invention is measured in a suspension test according to trivial modifications of the European Standard method EN 1275. The pyrano pyranone derivatives are dissolved in ethanol or DMSO resulting in 1% stock solutions of the compounds. The cell density of Candida albicans ATCC 10231 used as inoculum for the suspension test was 2.4×10^8 cfu/ml and of A. niger ATCC 6275 3.8×10^8 cfu/ml. For the suspension tests, an appropriate concentration of the test compound is mixed with a Candida albicans suspension resulting in a final cell count of about 10^5 cfu/ml. These test mixtures are incubated at room temperature (22° C.+/−2° C.) and aliquots of 1 ml test mixture containing Candida albicans were taken after set contact times for determination of the residual cell count. For inactivation of the antimicrobial compounds, the 1 ml aliquots are diluted in 1:10 steps in a solution with 10% Tween, 3% lecithin, 0.1% histidine and 0.5% sodium thiosulfate.

[4] = test system: Malassezia furfur DSM 6171, CIP 1636-86; assay: Agar incorporation test, minimum inhibitory concentration (MIC); assay type: cell-based; conditions: M. fufur
Procedure: For determination of the microbistatic activity, the Minimum Inhibitory Concentrations (MIC) of the test compounds is determined.
The pyrano pyranone derivatives are also tested in an agar incorporation test in order to determine their minimum inhibitory concentrations (MIC) against various tests organisms. A selection of the results is shown in the following.
For this compound, a 1% stock solutions i9s prepared in ethanol.
A dilution series of the test compound in 15 ml still liquid agar media are prepared with 400 ppm, 200 ppm, 100 ppm, 50 ppm, 25 ppm, 12.5 ppm, 6.25 ppm, 3.125 ppm and 1.56 pmm of active.
The media used for the agar plates are Müller-Hinton (Merck) for the determination of the MIC against bacteria and C. albicans and Sabouraud Agar (Merck) for the determination of the MIC against A. niger. For the determination of the MIC against Malassezia furfur DSM 6171, CIP 1636-86 Medium 472 (DSMZ—Deutsche Sammlung von Mikroorganismen and Zellkulturen GmbH) was used.
After solidification of the agar, all agar plates containing the test compounds were stored over night in the laboratory (at about 22° C.) for drying. […]
10 μl of these cell dilutions are then dotted onto the surface of the agar media. […] (for Aspergillus niger), 4 days at 30° C. and then the highest dilution of the test compound at which no more growth was observed (corresponds to the MIC) is determined. […]

[5] = P. aeruginosa, contact time 24 h

Row | MIC [4] [µg/mL] | SMILES | log reduction after set contact time ([1]; E. coli, contact time 24 h) | residual cell count (cfu/ml) after set contact time ([1]; E. coli, contact time 24 h) | log reduction after set contact time [1, 5] | residual cell count (cfu/ml) after set contact time [1, 5] [cfu/ml] | log reduction after set contact time ([1]; S. aureus, contact time 24 h) | residual cell count (cfu/ml) after set contact time ([1]; S. aureus, contact time 24 h) [cfu/ml] | log reduction after set contact time ([2]; contact time 24 h) | residual cell count (cfu/ml) after set contact time ([2]; contact time 24 h) | log reduction after set contact time ([3]; contact time 24 h) | residual cell count (cfu/ml) after set contact time ([3]; contact time 24 h) [cfu/ml] | log reduction after set contact time ([2]; contact time 7 d) | residual cell count (cfu/ml) after set contact time ([2]; contact time 7 d) | log reduction after set contact time ([1]; S. aureus, contact time 7 d) | residual cell count (cfu/ml) after set contact time ([1]; S. aureus, contact time 7 d) [cfu/ml] | log reduction after set contact time ([3]; contact time 7 d) | residual cell count (cfu/ml) after set contact time ([3]; contact time 7 d) [cfu/ml]
1 |  | CC1=Cc2c(cc(C)oc2=O)OC1C (stereo not shown) [P-1] | >3 | <100 cfu/ml | >3 | <100 | >3 | <100 | 2.2 | 1.2 × 10^3 cfu/ml | >3 | <100 |  |  |  |  |  | 
2 |  | CC(C)=CCCC1(C)C=Cc2c(cc(C)oc2=O)O1 (stereo not shown) [P-3] | >3 | <100 cfu/ml | >3 | <100 | >3 | <100 |  |  | >3 | <100 | 2.2 | 1.2 × 10^3 cfu/ml |  |  |  | 
3 |  | Cc1cc2c(c(=O)o1)C=CC(C)(C)O2 [P-4] | >3 | <100 cfu/ml | >3 | <100 | >3 | <100 | >3 | <10 cfu/ml | >3 | <100 |  |  |  |  |  | 
4 | 50 (≈ 205 µM) | CC1=Cc2c(cc(C)oc2=O)OC1c1ccco1 (stereo not shown) [P-5] | >3 | 4.0 × 10^2 cfu/ml | >3 | <100 |  |  |  |  |  |  |  |  | >3 | <100 | >3 | <100
5 |  | CCCC1C=Cc2c(cc(C)oc2=O)O1 (stereo not shown) [P-6] | >3 | <100 cfu/ml | >3 | <100 | >3 | <100 | >3 | <10 cfu/ml | >3 | <100 |  |  |  |  |  | 
